In the data set the target is ATXN2. In words: mouse, dose not given. The note with it: ASO.

HELM strings list units from the 5' end as sugar, base in round brackets, then linkage (d deoxyribose, r ribose, m 2'-O-methyl, p phosphodiester). Strings are as the collection lists them; they lack the last nucleoside at the 3' end of the tested compound. [moe] = 2'-O-(2-methoxyethyl) (MOE); [sp] = phosphorothioate linkage; [m5C] = 5-methylcytosine

In turn, “RNA1{[moe](G)[sp].[moe]([m5C])p.[moe](A)p.[moe](T)p.[moe](G)p.d(A)[sp].d(T)[sp].d([m5C])[sp].d(T)[sp].d(T)[sp].d(G)[sp].d(T)[sp].d(G)[sp].d(T)[sp].d(A)[sp].[moe](T)p.[moe](A)p.[moe](T)[sp].[moe](A)}$$$$ (last 3' nucleoside missing)” returned a 3 h FOB score of 1 score 0-7. For the substance “RNA1{[moe](G)[sp].[moe]([m5C])p.[moe](A)p.[moe](T)p.[moe]([m5C])p.d(A)[sp].d(T)[sp].d(T)[sp].d(A)[sp].d([m5C])[sp].d(G)[sp].d(A)[sp].d([m5C])[sp].d([m5C])[sp].d(A)[sp].[moe](T)p.[moe](T)p.[moe]([m5C])[sp].[moe](T)}$$$$ (last 3' nucleoside missing)”, the 3 h FOB score was 4 score 0-7. The result for “RNA1{[moe](G)[sp].[moe]([m5C])p.[moe](A)p.[moe]([m5C])p.[moe](A)p.d(T)[sp].d(A)[sp].d(G)[sp].d(G)[sp].d(T)[sp].d(T)[sp].d(A)[sp].d(G)[sp].d(A)[sp].d(A)[sp].[moe](T)p.[moe](T)p.[moe](T)[sp].[moe](T)}$$$$ (last 3' nucleoside missing)” reads 4 score 0-7.

In turn, “RNA1{[moe](G)[sp].[moe]([m5C])p.[moe](G)p.[moe](G)p.[moe](T)p.d(G)[sp].d(A)[sp].d(A)[sp].d(T)[sp].d(T)[sp].d([m5C])[sp].d(T)[sp].d(G)[sp].d(T)[sp].d([m5C])[sp].[moe](T)p.[moe]([m5C])p.[moe]([m5C])[sp].[moe]([m5C])}$$$$ (last 3' nucleoside missing)” returned a 3 h FOB score of 0 score 0-7. As for “RNA1{[moe](G)[sp].[moe]([m5C])p.[moe](T)p.[moe](A)p.[moe](A)[sp].d([m5C])[sp].d(T)[sp].d(G)[sp].d(G)[sp].d(T)[sp].d(T)[sp].d(T)[sp].d(G)[sp].[moe]([m5C])p.[moe]([m5C])p.[moe]([m5C])[sp].[moe](T)}$$$$ (last 3' nucleoside missing)”, the 3 h FOB score came out at 6.5 score 0-7.

“RNA1{[moe](G)[sp].[moe]([m5C])p.[moe](T)p.[moe](A)p.[moe](A)p.d([m5C])[sp].d(T)[sp].d(G)[sp].d(G)[sp].d(T)[sp].d(T)[sp].d(T)[sp].d(G)[sp].d([m5C])[sp].d([m5C])[sp].[moe]([m5C])p.[moe](T)p.[moe](T)[sp].[moe](G)}$$$$ (last 3' nucleoside missing)” registered a 3 h FOB score of 6.75 score 0-7.

“RNA1{[moe](G)[sp].[moe]([m5C])p.[moe](T)p.[moe](G)p.[moe](A)p.d(T)[sp].d(G)[sp].d(T)[sp].d(G)[sp].d(T)[sp].d(T)[sp].d([m5C])[sp].d(A)[sp].d(T)[sp].d(G)[sp].[moe](A)p.[moe]([m5C])p.[moe](T)[sp].[moe](T)}$$$$ (last 3' nucleoside missing)” registered a 3 h FOB score of 4.5 score 0-7. In the case of “RNA1{[moe](G)[sp].[moe]([m5C])p.[moe](T)p.[moe](G)p.[moe](G)p.d(T)[sp].d(T)[sp].d([m5C])[sp].d([m5C])[sp].d(T)[sp].d(T)[sp].d(A)[sp].d([m5C])[sp].d(A)[sp].d(A)[sp].[moe](T)p.[moe](T)p.[moe](A)[sp].[moe](T)}$$$$ (last 3' nucleoside missing)” it was 0 score 0-7; in that of “RNA1{[moe](G)[sp].[moe]([m5C])p.[moe](T)p.[moe](G)p.[moe](T)p.d(A)[sp].d(T)[sp].d(T)[sp].d(T)[sp].d(T)[sp].d(T)[sp].d(A)[sp].d([m5C])[sp].d(T)[sp].d([m5C])[sp].[moe](A)p.[moe]([m5C])p.[moe]([m5C])[sp].[moe](T)}$$$$ (last 3' nucleoside missing)”, 0 score 0-7. “RNA1{[moe](G)[sp].[moe]([m5C])p.[moe](T)p.[moe](G)p.[moe](T)p.d(G)[sp].d(A)[sp].d(G)[sp].d(T)[sp].d(T)[sp].d([m5C])[sp].d(A)[sp].d([m5C])[sp].d([m5C])[sp].d(T)[sp].[moe](G)p.[moe]([m5C])p.[moe](A)[sp].[moe](T)}$$$$ (last 3' nucleoside missing)” returned a 3 h FOB score of 0 score 0-7. The substance “RNA1{[moe](G)[sp].[moe]([m5C])p.[moe](T)p.[moe](G)p.[moe](T)p.d(G)[sp].d(T)[sp].d(A)[sp].d(T)[sp].d(T)[sp].d(T)[sp].d(T)[sp].d(T)[sp].d([m5C])[sp].d(T)[sp].[moe](T)p.[moe]([m5C])p.[moe]([m5C])[sp].[moe](T)}$$$$ (last 3' nucleoside missing)” gave a 3 h FOB score of 0 score 0-7.

With “RNA1{[moe](G)[sp].[moe]([m5C])p.[moe](T)p.[moe](T)p.[moe](A)[sp].d(G)[sp].d(A)[sp].d(G)[sp].d(T)[sp].d(T)[sp].d(T)[sp].d(T)[sp].d(T)[sp].[moe](G)p.[moe]([m5C])p.[moe]([m5C])[sp].[moe](T)}$$$$ (last 3' nucleoside missing)”, the 3 h FOB score worked out at 4 score 0-7. Take “RNA1{[moe](G)[sp].[moe]([m5C])p.[moe](T)p.[moe](T)p.[moe](A)p.[moe](G)p.d(A)[sp].d(G)[sp].d(T)[sp].d(T)[sp].d(T)[sp].d(T)[sp].d(T)[sp].d(G)[sp].d([m5C])[sp].d([m5C])[sp].[moe](T)p.[moe](T)[sp].[moe]([m5C])}$$$$ (last 3' nucleoside missing)”: the 3 h FOB score is 5 score 0-7. The result for “RNA1{[moe](G)[sp].[moe]([m5C])p.[moe](T)p.[moe](T)p.[moe](A)p.d(G)[sp].d(A)[sp].d(G)[sp].d(T)[sp].d(T)[sp].d(T)[sp].d(T)[sp].d(T)[sp].d(G)[sp].d([m5C])[sp].[moe]([m5C])p.[moe](T)p.[moe](T)[sp].[moe]([m5C])}$$$$ (last 3' nucleoside missing)” reads 4 score 0-7; that for “RNA1{[moe](G)[sp].[moe]([m5C])p.[moe](T)p.[moe](T)p.[moe](A)p.d(T)[sp].d(T)[sp].d(A)[sp].d(T)[sp].d(T)[sp].d([m5C])[sp].d(T)[sp].d([m5C])[sp].d(A)[sp].d([m5C])[sp].[moe](A)p.[moe](T)p.[moe](A)[sp].[moe](T)}$$$$ (last 3' nucleoside missing)”, 0 score 0-7. “RNA1{[moe](G)[sp].[moe]([m5C])p.[moe](T)p.[moe](T)p.d(A)[sp].d(G)[sp].d(A)[sp].d(G)[sp].d(T)[sp].d(T)[sp].d(T)[sp].d(T)[sp].d(T)[sp].d(G)[sp].[moe]([m5C])p.[moe]([m5C])p.[moe](T)p.[moe](T)[sp].[moe]([m5C])}$$$$ (last 3' nucleoside missing)” gave a 3 h FOB score of 4 score 0-7. “RNA1{[moe](T)[sp].[moe](A)p.[moe](A)p.[moe](G)p.[moe](A)p.d([m5C])[sp].d(T)[sp].d(T)[sp].d(T)[sp].d(T)[sp].d(T)[sp].d(A)[sp].d(T)[sp].d(G)[sp].d(T)[sp].[moe](T)p.[moe](G)p.[moe]([m5C])[sp].[moe](T)}$$$$ (last 3' nucleoside missing)”: the 3 h FOB score is 1 score 0-7. The result for “RNA1{[moe](T)[sp].[moe](A)p.[moe](A)p.[moe](G)p.[moe]([m5C])p.d(T)[sp].d(G)[sp].d(T)[sp].d(G)[sp].d([m5C])[sp].d(T)[sp].d(A)[sp].d(T)[sp].d(G)[sp].d(G)[sp].[moe](T)p.[moe](G)p.[moe](G)[sp].[moe](T)}$$$$ (last 3' nucleoside missing)” reads 6.25 score 0-7; that for “RNA1{[moe](T)[sp].[moe](A)p.[moe](A)p.[moe](T)p.[moe](A)p.d(T)[sp].d(T)[sp].d([m5C])[sp].d([m5C])[sp].d(A)[sp].d(T)[sp].d(A)[sp].d([m5C])[sp].d(A)[sp].d(G)[sp].[moe](A)p.[moe](T)p.[moe]([m5C])[sp].[moe](G)}$$$$ (last 3' nucleoside missing)”, 0 score 0-7. For the substance “RNA1{[moe](T)[sp].[moe](A)p.[moe](A)p.[moe]([m5C])p.[moe](T)[sp].d(G)[sp].d(G)[sp].d(T)[sp].d(T)[sp].d(T)[sp].d(G)[sp].d([m5C])[sp].d([m5C])[sp].[moe]([m5C])p.[moe](T)p.[moe](T)[sp].[moe](G)}$$$$ (last 3' nucleoside missing)”, the 3 h FOB score turned out to be 6 score 0-7. For the substance “RNA1{[moe](T)[sp].[moe](A)p.[moe](G)p.[moe](A)p.[moe](G)p.d(T)[sp].d(T)[sp].d(T)[sp].d(T)[sp].d(T)[sp].d(G)[sp].d([m5C])[sp].d([m5C])[sp].d(T)[sp].d(T)[sp].[moe]([m5C])p.[moe]([m5C])p.[moe](A)[sp].[moe](T)}$$$$ (last 3' nucleoside missing)”, the 3 h FOB score turned out to be 2.5 score 0-7.

For “RNA1{[moe](T)[sp].[moe](A)p.[moe](G)p.[moe](T)p.[moe](G)p.d(T)[sp].d(T)[sp].d(T)[sp].d(G)[sp].d(G)[sp].d(G)[sp].d(A)[sp].d(T)[sp].d(G)[sp].d([m5C])[sp].[moe](T)p.[moe](T)p.[moe]([m5C])[sp].[moe](A)}$$$$ (last 3' nucleoside missing)”, the 3 h FOB score is 6.25 score 0-7. Substance “RNA1{[moe](T)[sp].[moe](A)p.[moe](G)p.[moe]([m5C])p.[moe](A)p.d(T)[sp].d([m5C])[sp].d(A)[sp].d(T)[sp].d(T)[sp].d(G)[sp].d(G)[sp].d([m5C])[sp].d(G)[sp].d([m5C])[sp].[moe](A)p.[moe](T)p.[moe](G)[sp].[moe](G)}$$$$ (last 3' nucleoside missing)” came in with a 3 h FOB score of 6.25 score 0-7. Consider “RNA1{[moe](T)[sp].[moe](A)p.[moe](G)p.[moe]([m5C])p.[moe](A)p.d([m5C])[sp].d(T)[sp].d(T)[sp].d(G)[sp].d(G)[sp].d(T)[sp].d(T)[sp].d([m5C])[sp].d(A)[sp].d(A)[sp].[moe](T)p.[moe](T)p.[moe](T)[sp].[moe](T)}$$$$ (last 3' nucleoside missing)”, for which the 3 h FOB score was 6 score 0-7. In the case of “RNA1{[moe](T)[sp].[moe](A)p.[moe](G)p.[moe]([m5C])p.[moe](T)p.d([m5C])[sp].d(A)[sp].d(T)[sp].d([m5C])[sp].d(A)[sp].d(A)[sp].d(G)[sp].d(G)[sp].d(T)[sp].d(A)[sp].[moe]([m5C])p.[moe]([m5C])p.[moe](A)[sp].[moe](G)}$$$$ (last 3' nucleoside missing)” it was 3 score 0-7. Take “RNA1{[moe](T)[sp].[moe](A)p.[moe](T)p.[moe](G)p.[moe](A)p.d(G)[sp].d(G)[sp].d(G)[sp].d(A)[sp].d([m5C])[sp].d(T)[sp].d(A)[sp].d(G)[sp].d(A)[sp].d(G)[sp].[moe]([m5C])p.[moe](A)p.[moe](T)[sp].[moe]([m5C])}$$$$ (last 3' nucleoside missing)”: the 3 h FOB score stood at 6.25 score 0-7.

The record behind these values is the OligoGym collection.
